Experimental data reported in US10618903B2, “Heteroaryl substituted aminopyridine compounds” (BRISTOL-MYERS SQUIBB COMPANY, priority 2015, dated 2020).

target: IRAK4 (Homo sapiens (Human), UniProt Q9NWZ3); test: IRAK4 Inhibition Assay; format: biochemical; conditions: ATP 500 μM; IRAK4 0.6 nM
Method: The assays were performed in U-bottom 384-well plates. The final assay volume was 30 μL prepared from 15 μL additions of enzyme and substrates (fluoresceinated peptide and ATP) and test compounds in assay buffer (20 mM HEPES pH 7.2, 10 mM MgCl2, 0.015% Brij 35 and 4 mM DTT). The reaction was initiated by the combination of IRAK4 with substrates and test compounds. The reaction mixture was incubated at room temperature for 60 min. and terminated by adding 45 μL of 35 mM EDTA to each sample. The reaction mixture was analyzed on the Caliper LABCHIP® 3000 (Caliper, Hopkinton, Mass.) by electrophoretic separation of the fluorescent substrate and phosphorylated product. Inhibition data were calculated by comparison to no enzyme control reactions for 100% inhibition and vehicle-only reactions for 0% inhibition. The final concentrations of reagents in the assays are ATP, 500 μM; FL-IPTSPITTTYFFFKKK peptide 1.5 μM; IRAK4, 0.6 nM; and DMSO, 1.6%.

Sequence of IRAK4 (Q9NWZ3 whole entry): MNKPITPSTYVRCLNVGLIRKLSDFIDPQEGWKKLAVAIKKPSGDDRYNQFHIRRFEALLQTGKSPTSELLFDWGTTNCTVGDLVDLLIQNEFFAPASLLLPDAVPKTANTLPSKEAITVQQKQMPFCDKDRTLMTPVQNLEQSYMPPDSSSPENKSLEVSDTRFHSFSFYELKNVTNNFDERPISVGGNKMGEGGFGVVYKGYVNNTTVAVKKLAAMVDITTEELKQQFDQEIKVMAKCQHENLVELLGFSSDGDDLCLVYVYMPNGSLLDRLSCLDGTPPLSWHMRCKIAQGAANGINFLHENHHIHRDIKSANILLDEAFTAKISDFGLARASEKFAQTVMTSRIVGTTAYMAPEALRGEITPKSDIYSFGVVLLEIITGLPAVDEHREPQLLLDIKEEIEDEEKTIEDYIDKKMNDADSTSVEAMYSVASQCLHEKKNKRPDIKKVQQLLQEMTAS

IC50 [nM] | SMILES
29 | CC(C)Nc1cc(-c2cnn3cc(Cl)cnc23)ncc1C(=O)N[C@H]1CC[C@H](NC(=O)C(C)(C)O)CC1 [Example 78, 6-(6-chloropyrazolo[1,5-a]pyrimidin-3-yl)-N-((1r,4r)-4-(2-hydroxy-2-methylpropanamido)cyclohexyl)-4-(isopropylamino)nicotinamide]
14 | COC1CCC(O)(CCNC(=O)c2cnc(-c3cnn4cc(Cl)cnc34)cc2NC2COC2)CC1 (centres unmarked) [Example 79, 6-(6-chloropyrazolo[1,5-a]pyrimidin-3-yl)-N-(2-(1-hydroxy-4-methoxycyclohexyl)ethyl)-4-(oxetan-3-ylamino)nicotinamide]
26 | CC[C@H](O)CNc1cc(-c2cnn3cc(Cl)cnc23)ncc1C(=O)NC[C@@H](F)C(C)(C)O [Example 81, 6-(6-chloropyrazolo[1,5-a]pyrimidin-3-yl)-N—((R)-2-fluoro-3-hydroxy-3-methylbutyl)-4-(((S)-2-hydroxybutyl)amino)nicotinamide]
2 | CC(C)(O)[C@H](F)CNC(=O)c1cnc(-c2cnn3cc(Cl)cnc23)cc1NC1CCC(F)C1 (stereo partly drawn) [Example 85, 6-(6-chloropyrazolo[1,5-a]pyrimidin-3-yl)-N—((R)-2-fluoro-3-hydroxy-3-methylbutyl)-4-((3-fluorocyclopentyl)amino)nicotinamide]
4 | CC(C)(O)[C@H](F)CNC(=O)c1cnc(-c2cnn3cc(Cl)cnc23)cc1NC1CCC(F)C1 (stereo partly drawn) [Example 86, 6-(6-chloropyrazolo[1,5-a]pyrimidin-3-yl)-N—((R)-2-fluoro-3-hydroxy-3-methylbutyl)-4-((3-fluorocyclopentyl)amino)nicotinamide]
34 | CNC(=O)[C@H]1CC[C@H](NC(=O)c2cnc(-c3cnn4cc(C#N)cnc34)cc2NC(C)C)CC1 [Example 88, 6-(6-cyanopyrazolo[1,5-a]pyrimidin-3-yl)-4-(isopropylamino)-N-((1r,4r)-4-(methylcarbamoyl)cyclohexyl)nicotinamide]
94 | C[C@H](Nc1cc(-c2cnn3cc(C#N)cnc23)ncc1C(=O)NC[C@@H](F)C(C)(C)O)C(C)(C)O [Example 100, 6-(6-cyanopyrazolo[1,5-a]pyrimidin-3-yl)-N—((R)-2-fluoro-3-hydroxy-3-methylbutyl)-4-(((S)-3-hydroxy-3-methylbutan-2-yl)amino)nicotinamide]
80 | CNC(=O)[C@H]1CC[C@H](NC(=O)c2cnc(-c3cnn4cc(C#N)cnc34)cc2NCC(C)(C)F)CC1 [Example 102, 6-(6-cyanopyrazolo[1,5-a]pyrimidin-3-yl)-4-((2-fluoro-2-methylpropyl)amino)-N-((1r,4r)-4-(methylcarbamoyl)cyclohexyl)nicotinamide]
44 | CC(C)(O)[C@H](F)CNC(=O)c1cnc(-c2cnn3cc(C#N)cnc23)cc1NC1CCCC1O (stereo partly drawn) [Example 103, 6-(6-cyanopyrazolo[1,5-a]pyrimidin-3-yl)-N—((R)-2-fluoro-3-hydroxy-3-methylbutyl)-4-((2-hydroxycyclopentyl)amino)nicotinamide]
67 | CC(C)(O)[C@H](F)CNC(=O)c1cnc(C2=C3N=CC(C#N)C=C3N=N2)cc1N[C@@H]1CCCN(C(=O)CC(F)(F)F)C1 (stereo partly drawn) [Example 108, 6-(6-cyano-6H-pyrazolo[4,3-b]pyridin-3-yl)-N—((R)-2-fluoro-3-hydroxy-3-methylbutyl)-4-(((R)-1-(3,3,3-trifluoropropanoyl)piperidin-3-yl)amino)nicotinamide]
53 | CC(Nc1cc(-c2cnn3cc(C#N)cnc23)ncc1C(=O)NC[C@@H](F)C(C)(C)O)c1cccnc1 (stereo partly drawn) [Example 113, 6-(6-cyanopyrazolo[1,5-a]pyrimidin-3-yl)-N—((R)-2-fluoro-3-hydroxy-3-methylbutyl)-4-((1-(pyridin-3-yl)ethyl)amino)nicotinamide]
9 | CC(C)(O)[C@H](F)CNC(=O)c1cnc(-c2cnn3cc(C#N)cnc23)cc1N[C@@H]1CCN(c2cncnc2)C1 [Example 119, 6-(6-cyanopyrazolo[1,5-a]pyrimidin-3-yl)-N—((R)-2-fluoro-3-hydroxy-3-methylbutyl)-4-(((R)-1-(pyrimidin-5-yl)pyrrolidin-3-yl)amino)nicotinamide]
52 | CC(C)(O)[C@H](F)CNC(=O)c1cnc(-c2cnn3cc(C#N)cnc23)cc1NCC1(O)COC1 [Example 121, (R)-6-(6-cyanopyrazolo[1,5-a]pyrimidin-3-yl)-N-(2-fluoro-3-hydroxy-3-methylbutyl)-4-(((3-hydroxyoxetan-3-yl)methyl)amino)nicotinamide]
12 | CO[C@H]1CC[C@H](NC(=O)c2cnc(-c3cnn4cc(C#N)cnc34)cc2NC2COC2)CC1 [Example 124, 6-(6-cyanopyrazolo[1,5-a]pyrimidin-3-yl)-N-((1r,4r)-4-methoxycyclohexyl)-4-(oxetan-3-ylamino)nicotinamide]
56 | CC[C@H](O)CNc1cc(-c2cnn3cc(C#N)cnc23)ncc1C(=O)NC[C@@H](F)C(C)(C)O [Example 125, 6-(6-cyanopyrazolo[1,5-a]pyrimidin-3-yl)-N—((R)-2-fluoro-3-hydroxy-3-methylbutyl)-4-(((S)-2-hydroxybutyl)amino)nicotinamide]
22 | CC(C)(O)[C@H](F)CNC(=O)c1cnc(-c2cnn3cccnc23)cc1NC1CCOCC1 [Example 126, (R)—N-(2-fluoro-3-hydroxy-3-methylbutyl)-6-(pyrazolo[1,5-a]pyrimidin-3-yl)-4-((tetrahydro-2H-pyran-4-yl)amino)nicotinamide]
81 | CC(C)Nc1cc(-c2cnn3cccnc23)ncc1C(=O)NC[C@@H](F)C(C)(C)O [Example 127, (R)—N-(2-fluoro-3-hydroxy-3-methylbutyl)-4-(isopropylamino)-6-(pyrazolo[1,5-a]pyrimidin-3-yl)nicotinamide]
75 | CC(C)Nc1cc(-c2cnn3cc(C4CC4)cnc23)ncc1C(=O)NC[C@@H](F)C(C)(C)O [Example 128, (R)-6-(6-cyclopropylpyrazolo[1,5-a]pyrimidin-3-yl)-N-(2-fluoro-3-hydroxy-3-methylbutyl)-4-(isopropylamino)nicotinamide]
3 | CC(C)Nc1cc(-c2cnn3cc(F)c(N)nc23)ncc1C(=O)NC[C@@H](F)C(C)(C)O [Example 129, (R)-6-(5-amino-6-fluoropyrazolo[1,5-a]pyrimidin-3-yl)-N-(2-fluoro-3-hydroxy-3-methylbutyl)-4-(isopropylamino)nicotinamide]
13 | CC(C)(O)[C@H](F)CNC(=O)c1cnc(-c2cnc3cccnn23)cc1NC1COC1 [Example 131, (R)—N-(2-fluoro-3-hydroxy-3-methylbutyl)-6-(imidazo[1,2-b]pyridazin-3-yl)-4-(oxetan-3-ylamino)nicotinamide]
9 | CC(C)(O)[C@H](F)CNC(=O)c1cnc(-c2cnc3cccnn23)cc1NC1CCOCC1 [Example 132, (R)—N-(2-fluoro-3-hydroxy-3-methylbutyl)-6-(imidazo[1,2-b]pyridazin-3-yl)-4-((tetrahydro-2H-pyran-4-yl)amino)nicotinamide]
36 | CC(C)(O)[C@H]1CC[C@H](NC(=O)c2cnc(-c3cnc4cccnn34)cc2NC2COC2)CC1 [Example 133, N-((1r,4r)-4-(2-hydroxypropan-2-yl)cyclohexyl)-6-(imidazo[1,2-b]pyridazin-3-yl)-4-(oxetan-3-ylamino)nicotinamide]
19 | C[C@@H](CO)Nc1cc(-c2cnc3cccnn23)ncc1C(=O)NC[C@@H](F)C(C)(C)O [Example 136, N—((R)-2-fluoro-3-hydroxy-3-methylbutyl)-4-(((S)-1-hydroxypropan-2-yl)amino)-6-(imidazo[1,2-b]pyridazin-3-yl)nicotinamide]
75 | C[C@@H](CO)Nc1cc(-c2cnc3cccnn23)ncc1C(=O)NCCC(C)(C)O [Example 137, (S)—N-(3-hydroxy-3-methylbutyl)-4-((1-hydroxypropan-2-yl)amino)-6-(imidazo[1,2-b]pyridazin-3-yl)nicotinamide]
62 | CC(C)(O)CNc1cc(-c2cnc3cccnn23)ncc1C(=O)NC[C@@H](F)C(C)(C)O [Example 138, (R)—N-(2-fluoro-3-hydroxy-3-methylbutyl)-4-((2-hydroxy-2-methylpropyl)amino)-6-(imidazo[1,2-b]pyridazin-3-yl)nicotinamide]
3 | CC(C)Nc1cc(-c2cnc3ccc(NCCO)nn23)ncc1C(=O)NC[C@@H](F)C(C)(C)O [Example 139, (R)—N-(2-fluoro-3-hydroxy-3-methylbutyl)-6-(6-((2-hydroxyethyl)amino)imidazo[1,2-b]pyridazin-3-yl)-4-(isopropylamino)nicotinamide]
6 | CC(C)(O)[C@H](F)CNC(=O)c1cnc(-c2cnc3ccc(NCCO)nn23)cc1NC1COC1 [Example 140, (R)—N-(2-fluoro-3-hydroxy-3-methylbutyl)-6-(6-((2-hydroxyethyl)amino)imidazo[1,2-b]pyridazin-3-yl)-4-(oxetan-3-ylamino)nicotinamide]
18 | COc1ccc2ncc(-c3cc(NC(C)C)c(C(=O)NC[C@@H](F)C(C)(C)O)cn3)n2n1 [Example 149, (R)—N-(2-fluoro-3-hydroxy-3-methylbutyl)-4-(isopropylamino)-6-(6-methoxyimidazo[1,2-b]pyridazin-3-yl) nicotinamide]
12 | CC(C)Nc1cc(-c2cnc3ccc(N)nn23)ncc1C(=O)NC[C@@H](F)C(C)(C)O [Example 150, (R)-6-(6-aminoimidazo[1,2-b]pyridazin-3-yl)-N-(2-fluoro-3-hydroxy-3-methylbutyl)-4-(isopropylamino)nicotinamide]
